Results published in US10294202B2, “Pyrrolidinones as herbicides” (FMC Corporation, priority 2013, dated 2019).

How the values were obtained:
[1] = tested on: johnsongrass; test: Test E preemergence herbicide test; type: in vivo, Sorghum halepense; design: key: 0 = no effect, 100 = complete control
Text: (§1) Seeds of plant species selected from corn (Zea mays), soybean (Glycine max), velvetleaf (Abutilon theophrasti), lambsquarters (Chenopodium album), wild poinsettia (Euphorbia heterophylla), pigweed, palmer (palmer pigweed, Amaranthus palmeri), waterhemp (common waterhemp, Amaranthus rudis), surinam grass (Brachiaria decumbens), crabgrass, large (large crabgrass, Digitaria sanguinalis), crabgrass, Brazil (Brazilian crabgrass, Digitaria horizontalis), panicum, fall (fall panicum, Panicum dichotomiflorum), foxtail, giant (giant foxtail, Setaria faberii), foxtail, green (green foxtail, Setaria viridis), goosegrass (Eleusine indica), johnsongrass (Sorghum halepense), ragweed (common ragweed, Ambrosia elatior), barnyardgrass (Echinochloa crus-galli), sandbur (southern sandbur, Cenchrus echinatus), arrowleaf […] rhombifolia), ryegrass, Italian (Italian ryegrass, Lolium multiflorum), dayflower, VA (Virginia dayflower, Commelina virginica), field bindweed (Convolvulus arvensis), morningglory (Ipomoea coccinea), nightshade (eastern black nightshade, Solanum ptycanthum), kochia (Kochia scoparia), nutsedge, yellow (yellow nutsedge, Cyperus esculentus), cocklebur (common cocklebur, Xanthium strumarium), smartweed (ladysthumb smartweed, Polygonum Persicaria) and beggarticks (hairy beggarticks, Bidens pilosa), were planted into a silt loam soil and treated preemergence with test chemicals formulated in a non-phytotoxic solvent mixture which included a surfactant. Treated plants and controls were maintained in a greenhouse for 21 days, after which time all species were compared to controls and visually evaluated. Plant response ratings, summarized in Table E, are based on a scale of 0 to 100 where 0 is no effect and 100 is complete control. A dash (-) response means no test result.

[2] = tested on: crabgrass, Brazil; test: Test E preemergence herbicide test; type: in vivo, Digitaria horizontalis; design: key: 0 = no effect, 100 = complete control
Text: as §1

[3] = tested on: surinam grass; test: Test E preemergence herbicide test; type: in vivo, Brachiaria decumbens; design: key: 0 = no effect, 100 = complete control
Text: as §1

[4] = tested on: ryegrass, Italian; test: Test D pre-/postemergence herbicide test; type: in vivo, Lolium multiflorum; details: for Plant response rating: Postemergence, Ryegrass, Italian, scale 0 to 100; for Plant response rating, Ryegrass, Italian: Preemergence, scale 0 to 100 (0 no effect, 100 complete control)
Summary of the method: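 Visual ratings from 0 (no effect) to 100 (complete control) were made against untreated controls 7 to 21 days after treatment. Application was both preemergence, on silt loam soil, and postemergence, to 1- to 4-leaf plants 2-18 cm tall; compounds were formulated in a non-phytotoxic surfactant-containing solvent.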

[5] = tested on: deadnettle; test: Test D pre-/postemergence herbicide test; type: in vivo, Lamium amplexicaule; details: for Plant response rating: Deadnettle, scale 0 to 100; for Plant response rating, Deadnettle: scale 0 to 100 (0 no effect, 100 complete control)
Text: Seeds of plant species selected from bluegrass (annual bluegrass, Poa annua), blackgrass (Alopecurus myosuroides), canarygrass (littleseed canarygrass, Phalaris minor), chickweed (common chickweed, Stellaria media), galium (catchweed bedstraw, Galium aparine), bromegrass, downy (downy bromegrass, Bromus tectorum), field poppy (Papaver rhoeas), field violet (Viola arvensis), foxtail, green (green foxtail, Setaria viridis), deadnettle (henbit deadnettle, Lamium amplexicaule), ryegrass, Italian (Italian ryegrass, Lolium multiflorum), kochia (Kochia scoparia), lambsquarters (Chenopodium album), oilseed rape (Brassica napus), pigweed (Amaranthus retroflexus), chamomile (scentless chamomile, Matricaria inodora), Russian thistle (Salsola kali), speedwell (bird's-eye speedwell, Veronica persica), barley, spring (spring barley, Hordeum vulgare), wheat, spring (spring wheat, Triticum aestivum), buckwheat, wild (wild buckwheat, Polygonum convolvulus), mustard, wild (wild mustard, Sinapis arvensis), oat, wild (wild oat, Avena fatua), radish, wild (wild radish, Raphanus raphanistrum), […]), barley, winter (winter barley, Hordeum vulgare), and wheat, winter (winter wheat, Triticum aestivum) were planted into a silt loam soil and treated preemergence with test chemicals formulated in a non-phytotoxic solvent mixture which included a surfactant. At the same time, these species were planted in pots containing Redi-Earth® planting medium (Scotts Company, 14111 Scottslawn Road, Marysville, Ohio 43041) comprising spaghnum peat moss, vermiculite, wetting agent and starter nutrients and treated with postemergence applications of the test chemicals formulated in the same manner. Plants ranged in height from 2 to 18 cm (1- to 4-leaf stage). Treated plants and controls were maintained in a controlled growth environment for 7 to 21 days after which time all species were compared to controls and visually evaluated. Plant response ratings, summarized in Table D, are based on a scale of 0 to 100 where 0 is no effect and 100 is complete control. A dash (-) response means no test result.

[6] = tested on: sprangletop, Brdd.; test: Test F flood (paddy) test; type: in vivo, Leptochloa fascicularis; details: 21 d, scale 0-100
Summary of the method: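 Visual injury ratings (0 no effect to 100 complete control) were taken 21 d after treatment against untreated controls. Compounds went directly into paddy water held 3 cm above soil, applied at the 2.0–2.5-leaf stage in sterilized Tama silt loam under a 30/27 °C, 16-h greenhouse regime.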

SMILES	Plant response rating, Johnsongrass ([1]; 16 g ai/ha)	Plant response rating, Johnsongrass ([1]; 31 g ai/ha)	Plant response rating, Johnsongrass ([1]; 62 g ai/ha)	Plant response rating, Johnsongrass ([1]; 125 g ai/ha)	Plant response rating, Johnsongrass ([1]; 250 g ai/ha)	Plant response rating, Crabgrass, Brazil ([2]; 31 g ai/ha)	Plant response rating, Crabgrass, Brazil ([2]; 62 g ai/ha)	Plant response rating, Crabgrass, Brazil ([2]; 125 g ai/ha)	Plant response rating, Crabgrass, Brazil ([2]; 250 g ai/ha)	Plant response rating, Surinam Grass ([3]; 16 g ai/ha)	Plant response rating, Surinam Grass ([3]; 31 g ai/ha)	Plant response rating, Surinam Grass ([3]; 62 g ai/ha)	Plant response rating, Surinam Grass ([3]; 125 g ai/ha)	Plant response rating, Surinam Grass ([3]; 250 g ai/ha)	Plant response rating ([4]; 31 g ai/ha)	Plant response rating ([4]; 62 g ai/ha)	Plant response rating ([4]; 125 g ai/ha)	Plant response rating ([4]; 250 g ai/ha)	Plant response rating ([5]; Postemergence, 31 g ai/ha)	Plant response rating ([5]; Postemergence, 62 g ai/ha)	also measured
O=C1NCC(c2ccc(Cl)c(Cl)c2)C1C(=O)Nc1ccccc1F (racemic) [Compound 14]	0	0	0	0	0	65	80	95	95	0	0	0	20	60	–	–	–	–	–	–	Plant response rating, Crabgrass, Brazil ([2]; 16 g ai/ha): 0
O=C1NCC(c2ccc(C(F)(F)F)cc2)C1C(=O)Nc1cccc(F)c1F (racemic) [Compound 202]	–	0	0	20	25	80	98	98	98	–	20	–	65	95	0	0	10	15	5	35	Plant response rating, Ryegrass, Italian ([4]; 62 g ai/ha): 5; Plant response rating, Ryegrass, Italian ([4]; 125 g ai/ha): 5; Plant response rating, Ryegrass, Italian ([4]; 31 g ai/ha): 0; Plant response rating, Ryegrass, Italian ([4]; 250 g ai/ha): 10; Plant response rating ([5]; Postemergence, 125 g ai/ha): 60; Plant response rating ([5]; Postemergence, 250 g ai/ha): 70; Plant response rating, Deadnettle ([5]; Preemergence, 62 g ai/ha): 65; Plant response rating, Deadnettle ([5]; Preemergence, 31 g ai/ha): 40; Plant response rating ([5]; Preemergence, 125 g ai/ha): 80; Plant response rating ([5]; Preemergence, 250 g ai/ha): 85
O=C1NCC(c2ccc(OC(F)F)cc2)C1C(=O)Nc1cccc(F)c1F (racemic) [Compound 350]	–	0	0	0	0	0	75	95	98	–	0	0	50	65	–	–	–	–	–	–	–
O=C1NCC(c2ccc(F)c(F)c2)C1C(=O)Nc1cccc(F)c1F (stereo not shown) [Compound 17, N-(2,3-difluorophenyl)-4-(3,4-difluorophenyl)-2-oxo-3-pyrrolidinecarboxamide]	0	0	0	0	0	65	95	95	98	0	0	50	70	75	0	0	0	0	0	0	Plant response rating ([4]; 16 g ai/ha): 0; Plant response rating ([5]; Postemergence, 16 g ai/ha): 0; Plant response rating ([5]; Postemergence, 125 g ai/ha): 10; Plant response rating ([5]; Postemergence, 250 g ai/ha): 10; Plant response rating, Sprangletop, Brdd. ([6]; 125 g ai/ha): 85; Plant response rating, Sprangletop, Brdd. ([6]; 250 g ai/ha): 85; Plant response rating, Sprangletop, Brdd. ([6]; 500 g ai/ha): 85; Plant response rating, Sprangletop, Brdd. ([6]; 1000 g ai/ha): 85; Plant response rating, Sprangletop, Brdd. ([6]; 2000 g ai/ha): 100; Plant response rating, Crabgrass, Brazil ([2]; 16 g ai/ha): 40
O=C1NCC(c2ccc(C(F)(F)F)cc2)C1C(=O)Nc1cccc(F)c1F (stereo not shown) [Compound 80, N-(2,3-difluorophenyl)-2-oxo-4-[4-(trifluoromethyl)phenyl]-3-pyrrolidinecarboxamide]	0	0	0	10	30	–	–	70	95	30	40	50	60	70	0	0	0	0	70	60	Plant response rating, Ryegrass, Italian ([4]; 62 g ai/ha): 5; Plant response rating, Ryegrass, Italian ([4]; 125 g ai/ha): 5; Plant response rating, Ryegrass, Italian ([4]; 31 g ai/ha): 0; Plant response rating, Ryegrass, Italian ([4]; 250 g ai/ha): 15; Plant response rating ([5]; Postemergence, 125 g ai/ha): 70; Plant response rating ([5]; Postemergence, 250 g ai/ha): 40; Plant response rating, Deadnettle ([5]; Preemergence, 62 g ai/ha): 0; Plant response rating, Deadnettle ([5]; Preemergence, 31 g ai/ha): 0; Plant response rating ([5]; Preemergence, 125 g ai/ha): 65; Plant response rating ([5]; Preemergence, 250 g ai/ha): 70
